Results as given in patent US9676760B2, “Fused heterocyclic compounds as ion channel modulators” (Gilead Sciences, Inc., priority 2011, dated 2017).

Target: wild-type human cardiac sodium channel, hNav1.5 (Homo sapiens, UniProt Q14524)
Assay: Late INa screening assay (QPatch whole cell patch clamp, HEK293)
Assay type: cell-based
Settings: HEK293, percent block of late INa; compound at 1 μM; 10 μM Tefluthrin; read-out: Late INa 1 μM
How it was run: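 HEK293 stably expressing hNav1.5 without beta subunits, recorded at 23-25° C. Late current was induced by 10 μM tefluthrin. Cells were depolarized from −120 mV to −20 mV for 250 ms at 0.1 Hz. Compounds were tested at 1 μM in extracellular solution, with baseline taken in 0Na-ECF; output is percent block of late INa.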

Sequence of wild-type human cardiac sodium channel, hNav1.5 (Q14524 whole entry): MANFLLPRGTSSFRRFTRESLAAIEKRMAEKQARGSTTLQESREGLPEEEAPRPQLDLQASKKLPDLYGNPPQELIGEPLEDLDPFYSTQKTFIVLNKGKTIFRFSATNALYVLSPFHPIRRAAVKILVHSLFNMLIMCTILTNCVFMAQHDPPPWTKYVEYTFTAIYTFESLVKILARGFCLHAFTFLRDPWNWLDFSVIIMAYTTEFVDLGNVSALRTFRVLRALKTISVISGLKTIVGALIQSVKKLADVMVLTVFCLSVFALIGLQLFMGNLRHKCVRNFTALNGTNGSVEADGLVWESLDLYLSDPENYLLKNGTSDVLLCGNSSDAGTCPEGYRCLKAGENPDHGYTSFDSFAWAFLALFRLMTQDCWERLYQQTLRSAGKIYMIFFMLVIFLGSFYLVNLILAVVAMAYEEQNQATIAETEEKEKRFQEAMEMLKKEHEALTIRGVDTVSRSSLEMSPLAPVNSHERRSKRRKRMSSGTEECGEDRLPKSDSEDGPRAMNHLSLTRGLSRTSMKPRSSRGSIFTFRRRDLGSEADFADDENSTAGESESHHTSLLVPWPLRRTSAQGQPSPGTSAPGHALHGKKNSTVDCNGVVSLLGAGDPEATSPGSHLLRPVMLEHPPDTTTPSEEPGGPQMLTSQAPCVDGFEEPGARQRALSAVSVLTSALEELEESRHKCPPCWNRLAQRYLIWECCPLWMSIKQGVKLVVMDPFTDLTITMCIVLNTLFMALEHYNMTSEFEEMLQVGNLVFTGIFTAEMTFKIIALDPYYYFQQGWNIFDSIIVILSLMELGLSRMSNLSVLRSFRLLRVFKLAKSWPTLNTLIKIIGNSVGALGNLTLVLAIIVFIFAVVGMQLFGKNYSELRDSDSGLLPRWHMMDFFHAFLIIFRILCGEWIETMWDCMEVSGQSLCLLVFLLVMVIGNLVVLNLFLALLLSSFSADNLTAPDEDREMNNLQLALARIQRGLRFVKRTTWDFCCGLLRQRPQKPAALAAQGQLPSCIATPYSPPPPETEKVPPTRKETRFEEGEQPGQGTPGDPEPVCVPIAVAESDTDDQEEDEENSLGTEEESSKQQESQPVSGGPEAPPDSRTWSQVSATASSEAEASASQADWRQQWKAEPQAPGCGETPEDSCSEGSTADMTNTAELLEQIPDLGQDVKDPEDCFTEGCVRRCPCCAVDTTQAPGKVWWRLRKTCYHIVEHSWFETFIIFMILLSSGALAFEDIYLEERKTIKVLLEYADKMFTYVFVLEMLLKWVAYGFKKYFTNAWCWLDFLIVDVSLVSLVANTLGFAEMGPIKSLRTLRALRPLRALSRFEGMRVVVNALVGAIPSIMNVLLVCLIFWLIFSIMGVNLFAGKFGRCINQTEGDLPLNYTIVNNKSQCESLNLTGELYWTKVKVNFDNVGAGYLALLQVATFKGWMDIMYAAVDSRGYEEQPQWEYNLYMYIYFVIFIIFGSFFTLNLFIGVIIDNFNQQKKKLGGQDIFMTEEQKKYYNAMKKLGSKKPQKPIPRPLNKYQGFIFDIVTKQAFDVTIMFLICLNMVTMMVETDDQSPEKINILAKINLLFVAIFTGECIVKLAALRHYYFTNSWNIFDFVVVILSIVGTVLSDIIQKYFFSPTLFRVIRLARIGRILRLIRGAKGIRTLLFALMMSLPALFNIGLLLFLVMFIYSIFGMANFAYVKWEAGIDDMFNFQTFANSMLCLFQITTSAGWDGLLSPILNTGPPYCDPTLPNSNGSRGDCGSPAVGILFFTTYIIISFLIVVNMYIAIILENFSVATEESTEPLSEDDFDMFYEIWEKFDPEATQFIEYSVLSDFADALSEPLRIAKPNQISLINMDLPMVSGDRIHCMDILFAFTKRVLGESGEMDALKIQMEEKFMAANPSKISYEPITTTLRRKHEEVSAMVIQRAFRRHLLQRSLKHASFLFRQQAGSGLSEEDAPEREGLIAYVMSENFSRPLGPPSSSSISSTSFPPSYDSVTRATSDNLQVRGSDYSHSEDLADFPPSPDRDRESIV

| SMILES | inhibition at 1 µM [%] |
| --- | --- |
| CCS(=O)(=O)NCCN1CCOc2ccc(-c3ccc(OC(F)(F)F)cc3)cc2C1=O [II-178, N-(2-(5-oxo-7-(4-(trifluoromethoxy)phenyl)-2,3-dihydrobenzo[f][1,4]oxazepin-4(5H)-yl)ethyl)ethanesulfonamide] | 19 |
| O=C1c2cc(-c3ccc(OC(F)(F)F)cc3)ccc2OCCN1CCNS(=O)(=O)C1CC1 [II-179, N-(2-(5-oxo-7-(4-(trifluoromethoxy)phenyl)-2,3-dihydrobenzo[f][1,4]oxazepin-4(5H)-yl)ethyl)cyclopropanesulfonamide] | 21 |
| O=C1c2cc(-c3ccc(OC(F)(F)F)cc3)ccc2OCCN1CCCS(=O)(=O)NC1CC1 [II-190, N-cyclopropyl-3-(5-oxo-7-(4-(trifluoromethoxy)phenyl)-2,3-dihydrobenzo[f][1,4]oxazepin-4(5H)-yl)propane-1-sulfonamide] | 18 |
| O=C1c2cc(-c3ccc(OC(F)(F)F)cc3)ccc2OCCN1CCCS(=O)(=O)N1CCC1 [II-191, 4-(3-(azetidin-1-ylsulfonyl)propyl)-7-(4-(trifluoromethoxy)phenyl)-3,4-dihydrobenzo[f][1,4]oxazepin-5(2H)-one] | 25 |
| O=C(NCCN1CCOc2ccc(-c3ccc(OC(F)(F)F)cc3)cc2C1=O)c1ncccn1 [II-192, N-(2-(5-oxo-7-(4-(trifluoromethoxy)phenyl)-2,3-dihydrobenzo[f][1,4]oxazepin-4(5H)-yl)ethyl)pyrimidine-2-carboxamide] | 15 |
| O=C1c2cc(-c3ccc(Oc4ccc(F)cc4)cc3)ccc2OCCN1Cc1ncccn1 [II-193, 7-(4-(4-fluorophenoxy)phenyl)-4-(pyrimidin-2-ylmethyl)-3,4-dihydrobenzo[f][1,4]oxazepin-5(2H)-one] | 70 |
| O=C1c2cc(-c3ccc(Oc4ccccc4)cc3)ccc2OCCN1Cc1ncccn1 [II-194, 7-(4-phenoxyphenyl)-4-(pyrimidin-2-ylmethyl)-3,4-dihydrobenzo[f][1,4]oxazepin-5(2H)-one] | 63 |
| O=C1c2cc(-c3cccc(Oc4ccccc4)c3)ccc2OCCN1Cc1ncccn1 [II-195, 7-(3-phenoxyphenyl)-4-(pyrimidin-2-ylmethyl)-3,4-dihydrobenzo[f][1,4]oxazepin-5(2H)-one] | 66 |
| O=C(c1ccccc1)N1CCOc2ccc(-c3ccc(OC(F)(F)F)cc3)cc2C1 [III-4, phenyl(7-(4-(trifluoromethoxy)phenyl)-2,3-dihydrobenzo[f][1,4]oxazepin-4(5H)-yl)methanone] | 35 |
| CC1(C(=O)N2CCOc3ccc(-c4ccc(OC(F)(F)F)cc4)cc3C2)CC1 [III-10, (1-methylcyclopropyl)(7-(4-(trifluoromethoxy)phenyl)-2,3-dihydrobenzo[f][1,4]oxazepin-4(5H)-yl)methanone] | 29 |
| O=C(C1CC(F)(F)C1)N1CCOc2ccc(-c3ccc(OC(F)(F)F)cc3)cc2C1 [III-11, (3,3-difluorocyclobutyl)(7-(4-(trifluoromethoxy)phenyl)-2,3-dihydrobenzo[f][1,4]oxazepin-4(5H)-yl)methanone] | 20 |
| O=C(c1cnccn1)N1CCOc2ccc(-c3ccc(OC(F)(F)F)cc3)cc2C1 [III-23, pyrazin-2-yl(7-(4-(trifluoromethoxy)phenyl)-2,3-dihydrobenzo[f][1,4]oxazepin-4(5H)-yl)methanone] | 26 |
| O=C(c1cccnn1)N1CCOc2ccc(-c3ccc(OC(F)(F)F)cc3)cc2C1 [III-24, pyridazin-3-yl(7-(4-(trifluoromethoxy)phenyl)-2,3-dihydrobenzo[f][1,4]oxazepin-4(5H)-yl)methanone] | 17 |
| O=C(Cc1ncccn1)N1CCOc2ccc(-c3ccc(C(F)(F)F)cc3)cc2C1 [III-30, 2-(pyrimidin-2-yl)-1-(7-(4-(trifluoromethyl)phenyl)-2,3-dihydrobenzo[f][1,4]oxazepin-4(5H)-yl)ethanone] | 16 |
